# Source: US8299048B2, “Hexahydrocyclopentyl[f]indazole sulfonamides and derivatives thereof as selective glucocorticoid receptor modulators” (Merck Sharp & Dohme Corp., priority 2008, dated 2012)
# Molecular target: T1, human GR (Homo sapiens, UniProt P04150)
# T1 sequence (P04150 1-777): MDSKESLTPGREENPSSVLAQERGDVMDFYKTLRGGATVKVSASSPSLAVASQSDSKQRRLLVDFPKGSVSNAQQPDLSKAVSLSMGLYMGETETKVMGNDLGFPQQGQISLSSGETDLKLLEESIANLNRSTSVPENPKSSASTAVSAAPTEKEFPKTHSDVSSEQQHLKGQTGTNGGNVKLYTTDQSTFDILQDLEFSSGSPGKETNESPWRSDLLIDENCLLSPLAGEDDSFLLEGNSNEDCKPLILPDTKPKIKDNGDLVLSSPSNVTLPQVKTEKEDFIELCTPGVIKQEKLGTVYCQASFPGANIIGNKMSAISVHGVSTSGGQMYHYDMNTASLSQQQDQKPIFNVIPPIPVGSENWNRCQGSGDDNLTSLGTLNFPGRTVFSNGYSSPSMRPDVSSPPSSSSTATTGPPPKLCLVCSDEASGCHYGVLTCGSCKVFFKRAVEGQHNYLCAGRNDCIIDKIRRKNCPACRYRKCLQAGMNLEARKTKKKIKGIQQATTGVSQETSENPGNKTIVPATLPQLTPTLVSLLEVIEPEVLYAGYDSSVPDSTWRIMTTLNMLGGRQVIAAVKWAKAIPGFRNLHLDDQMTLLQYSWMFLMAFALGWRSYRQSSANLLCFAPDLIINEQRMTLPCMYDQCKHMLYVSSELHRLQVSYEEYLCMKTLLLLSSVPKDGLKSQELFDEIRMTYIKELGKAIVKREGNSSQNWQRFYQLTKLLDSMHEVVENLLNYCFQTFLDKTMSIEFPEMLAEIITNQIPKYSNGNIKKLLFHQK
# Experiment: Trans-Activation Modulation of Glucocorticoid Receptor (GRAMMER), MMTV-LUC reporter, agonist mode
# Assay type: cell-based
# Set-up: endogenous in cells
# Details: for Emax: A549, A549 cells, maximum activity, read-out: Transactivation A549 Cells GRAMMER Emax; for EC50: A549 cells, inflection point, read-out: Transactivation A549 Cells GRAMMER IP
# Procedure, shortened: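 Readout is luciferase from a modified MMTV LTR promoter after 24 h compound exposure alongside 10 nM dexamethasone (100% activity reference), DMSO ≤1%.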
SMILES,Emax [%],EC50 [nM]
"C[C@]12Cc3cnn(-c4ccc(F)cc4)c3C=C1CC[C@@H]2CN(CC#N)S(=O)(=O)c1cccc(C#N)c1 [Example 36, 3-cyano-N-(cyanomethyl)-N-{[(4αR,5S)-1-(4-fluorophenyl)-4α-methyl-1,4,4α,5,6,7-hexahydrocyclopenta[f]indazol-5-yl]methyl}benzenesulfonamide]",22.7,745
"C[C@]12Cc3cnn(-c4ccc(F)cc4)c3C=C1CC[C@@H]2CN(CC#N)S(=O)(=O)c1ccc(Oc2cccc(Cl)c2C#N)cc1 [Example 38, 4-(3-chloro-2-cyanophenoxy)-N-(cyanomethyl)-N-{[(4αR,5S)-1-(4-fluorophenyl)-4α-methyl-1,4,4α,5,6,7-hexahydrocyclopenta[f]indazol-5-yl]methyl}benzenesulfonamide]",1.3,5000
"C[C@]12Cc3cnn(-c4ccc(F)cc4)c3C=C1CC[C@@H]2CN(CC#N)S(=O)(=O)c1cccc2ccccc12 [Example 40, N-(cyanomethyl)-N-{[(4αR,5S)-1-(4-fluorophenyl)-4α-methyl-1,4,4α,5,6,7-hexahydrocyclopenta[f]indazol-5-yl]methyl}naphthalene-1-sulfonamide]",3.2,82.8
"C[C@]12Cc3cnn(-c4ccc(F)cc4)c3C=C1CC[C@@H]2CN(CC#N)S(=O)(=O)c1ccc(-c2ccccc2)cc1 [Example 42, N-(cyanomethyl)-N-{[(4αR,5S)-1-(4-fluorophenyl)-4α-methyl-1,4,4α,5,6,7-hexahydrocyclopenta[f]indazol-5-yl]methyl}biphenyl-4-sulfonamide]",4.2,228
"C[C@]12Cc3cnn(-c4ccc(F)cc4)c3C=C1CC[C@@H]2CN(CC#N)S(=O)(=O)c1ccccc1F [Example 43, N-(cyanomethyl)-2-fluoro-N-{[(4αR,5S)-1-(4-fluorophenyl)-4α-methyl-1,4,4α,5,6,7-hexahydrocyclopenta[f]indazol-5-yl]methyl}benzenesulfonamide]",36,470
"C[C@]12Cc3cnn(-c4ccc(F)cc4)c3C=C1CC[C@@H]2CN(CC#N)S(=O)(=O)c1ccc(Oc2ccccn2)cc1 [Example 45, N-(cyanomethyl)-N-{[(4αR,5S)-1-(4-fluorophenyl)-4α-methyl-1,4,4α,5,6,7-hexahydrocyclopenta[f]indazol-5-yl]methyl}-4-(pyridin-2-yloxy)benzenesulfonamide]",11.4,2890
"C[C@]12Cc3cnn(-c4ccc(F)cc4)c3C=C1CC[C@@H]2CN(CC#N)S(=O)(=O)c1ccc(F)cc1 [Example 46, N-(cyanomethyl)-4-fluoro-N-{[(4αR,5S)-1-(4-fluorophenyl)-4α-methyl-1,4,4α,5,6,7-hexahydrocyclopenta[f]indazol-5-yl]methyl}benzenesulfonamide]",83.3,373
"C[C@]12Cc3cnn(-c4ccc(F)cc4)c3C=C1CC[C@@H]2CN(CC#N)S(=O)(=O)c1cc(F)c(F)cc1F [Example 47, N-(cyanomethyl)-2,4,5-trifluoro-N-{[(4αR,5S)-1-(4-fluorophenyl)-4α-methyl-1,4,4α,5,6,7-hexahydrocyclopenta[f]indazol-5-yl]methyl}benzenesulfonamide]",58.3,635
"C[C@]12Cc3cnn(-c4ccc(F)cc4)c3C=C1CC[C@@H]2CN(CC#N)S(=O)(=O)Cc1ccccc1 [Example 48, N-(cyanomethyl)-N-{[(4αR,5S)-1-(4-fluorophenyl)-4α-methyl-1,4,4α,5,6,7-hexahydrocyclopenta[f]indazol-5-yl]methyl}-1-phenylmethanesulfonamide]",8.8,995
"Cc1ccccc1S(=O)(=O)N(CC#N)C[C@H]1CCC2=Cc3c(cnn3-c3ccc(F)cc3)C[C@@]21C [Example 49, N-(cyanomethyl)-N-{[(4αR,5S)-1-(4-fluorophenyl)-4α-methyl-1,4,4α,5,6,7-hexahydrocyclopenta[f]indazol-5-yl]methyl}-2-methylbenzenesulfonamide]",14.1,955
"C[C@]12Cc3cnn(-c4ccc(F)cc4)c3C=C1CC[C@@H]2CN(CC#N)S(=O)(=O)c1ccc(F)cc1F [Example 51, N-(cyanomethyl)-2,4-difluoro-N-{[(4αR,5S)-1-(4-fluorophenyl)-4α-methyl-1,4,4α,5,6,7-hexahydrocyclopenta[f]indazol-5-yl]methyl}benzenesulfonamide]",83.3,433
"Cc1nn(C)c(Cl)c1S(=O)(=O)N(CC#N)C[C@H]1CCC2=Cc3c(cnn3-c3ccc(F)cc3)C[C@@]21C [Example 52, 5-chloro-N-(cyanomethyl)-N-{[(4αR,5S)-1-(4-fluorophenyl)-4α-methyl-1,4,4α,5,6,7-hexahydrocyclopenta[f]indazol-5-yl]methyl}-1,3-dimethyl-1H-pyrazole-4-sulfonamide]",31.9,570
C[C@]12Cc3cnn(-c4ccc(F)cc4)c3C=C1CC[C@@H]2CN(CC#N)S(=O)(=O)c1ccccc1C#N [Example 55],47.7,549
"Cc1oncc1S(=O)(=O)N(CCO)C[C@H]1CCC2=Cc3c(cnn3-c3ccc(F)cc3)C[C@@]21C [Example 56, N-{[(4αR,5S)-1-(4-fluorophenyl)-4α-methyl-1,4,4α,5,6,7-hexahydrocyclopenta[f]indazol-5-yl]methyl}-N-(2-hydroxyethyl)-5-methylisoxazole-4-sulfonamide]",50.9,805
"C[C@]12Cc3cnn(-c4ccc(F)cc4)c3C=C1CC[C@@H]2CN(CCO)S(=O)(=O)c1cc(Cl)c(Cl)s1 [Example 58, 4,5-dichloro-N-{[(4αR,5S)-1-(4-fluorophenyl)-4α-methyl-1,4,4α,5,6,7-hexahydrocyclopenta[f]indazol-5-yl]methyl}-N-(2-hydroxyethyl)thiophene-2-sulfonamide]",3.1,1080

# Results, then the compound that gave them:
Emax [%],EC50 [nM],SMILES
2.8,2190,"Cn1cnc(S(=O)(=O)N(CC#N)C[C@H]2CCC3=Cc4c(cnn4-c4ccc(F)cc4)C[C@@]32C)c1 [Example 37, N-(cyanomethyl)-N-{[(4αR,5S)-1-(4-fluorophenyl}-4α-methyl-1,4,4α,5,6,7-hexahydrocyclopenta[f]indazol-5-yl]methyl}-1-methyl-1H-imidazole-4-sulfonamide]"
1.7,5000,"CN1CCOc2cc(S(=O)(=O)N(CC#N)C[C@H]3CCC4=Cc5c(cnn5-c5ccc(F)cc5)C[C@@]43C)ccc21 [Example 39, N-(cyanomethyl)-N-{[(4αR,5S)-1-(4-fluorophenyl)-4α-methyl-1,4,4α,5,6,7-hexahydrocyclopenta[f]indazol-5-yl]methyl}-4-methyl-3,4-dihydro-2H-1,4-benzoxazine-7-sulfonamide]"
60.3,124,"C[C@]12Cc3cnn(-c4ccc(F)cc4)c3C=C1CC[C@@H]2CN(CC#N)S(=O)(=O)c1cc(OCC(F)(F)F)ccc1OCC(F)(F)F [Example 41, N-(cyanomethyl)-N-{[(4αR,5S)-1-(4-fluorophenyl)-4α-methyl-1,4,4α,5,6,7-hexahydrocyclopenta[f]indazol-5-yl]methyl}-2,5-bis(2,2,2-trifluoroethoxy)benzenesulfonamide]"
44.8,622,"C[C@]12Cc3cnn(-c4ccc(F)cc4)c3C=C1CC[C@@H]2CN(CC#N)S(=O)(=O)c1cc(F)cc(F)c1 [Example 44, N-(cyanomethyl)-3,5-difluoro-N-{[(4αR,5S)-1-(4-fluorophenyl)-4α-methyl-1,4,4α,5,6,7-hexahydrocyclopenta[f]indazol-5-yl]methyl}benzenesulfonamide]"
15.1,949,"C[C@]12Cc3cnn(-c4ccc(F)cc4)c3C=C1CC[C@@H]2CN(CC#N)S(=O)(=O)c1ccccc1Cl [Example 50, 2-chloro-N-(cyanomethyl)-N-{[(4αR,5S)-1-(4-fluorophenyl)-4α-methyl-1,4,4α,5,6,7-hexahydrocyclopenta[f]indazol-5-yl]methyl}benzenesulfonamide]"
18.1,866,"C[C@]12Cc3cnn(-c4ccc(F)cc4)c3C=C1CC[C@@H]2CN(CC#N)S(=O)(=O)c1ccccc1-c1ccccc1 [Example 53, N-(cyanomethyl)-N-{[(4αR,5S)-1-(4-fluorophenyl)-4α-methyl-1,4,4α,5,6,7-hexahydrocyclopenta[f]indazol-5-yl]methyl}biphenyl-2-sulfonamide]"
8.2,1080,"C[C@]12Cc3cnn(-c4ccc(F)cc4)c3C=C1CC[C@@H]2CN(CC#N)S(=O)(=O)c1ccccc1C(F)(F)F [Example 54, N-(cyanomethyl)-N-{[(4αR,5S)-1-(4-fluorophenyl)-4α-methyl-1,4,4α,5,6,7-hexahydrocyclopenta[f]indazol-5-yl]methyl}-2-(trifluoromethyl)benzenesulfonamide]"
41.3,437,C[C@]12Cc3cnn(-c4ccc(F)cc4)c3C=C1CC[C@@H]2CN(CCO)S(=O)(=O)c1ccc(F)c(F)c1 [Example 59]
